Measurements from PMC12860560, “Chromosome-level genome assembly of Cornus officinalis reveals the evolution of loganin biosynthesis” (Horticulture Research, 2025).

Biological target: T1, CrLAMT (Catharanthus roseus, UniProt B2KPR3)
T1 construct: gene LAMT; pBI121 vector, expressed in Nicotiana benthamiana
T1 sequence (B2KPR3 1-371): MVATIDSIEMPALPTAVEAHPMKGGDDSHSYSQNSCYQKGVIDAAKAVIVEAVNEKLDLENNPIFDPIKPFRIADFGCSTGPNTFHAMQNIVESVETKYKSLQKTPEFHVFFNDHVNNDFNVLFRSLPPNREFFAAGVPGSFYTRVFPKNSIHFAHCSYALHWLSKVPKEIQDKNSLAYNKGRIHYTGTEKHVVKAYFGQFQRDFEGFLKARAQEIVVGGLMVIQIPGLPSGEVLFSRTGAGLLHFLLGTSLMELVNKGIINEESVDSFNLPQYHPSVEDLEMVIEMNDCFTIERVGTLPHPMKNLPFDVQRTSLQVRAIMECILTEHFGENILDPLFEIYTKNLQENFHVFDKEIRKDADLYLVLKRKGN
Assay: HPLC of product loganin
Format: cell-based
Conditions: expressed in N. benthamiana; preparation of the HPLC assay not told

Structure (SMILES): C[C@@H]1[C@H]2[C@H](O[C@@H]3O[C@H](CO)[C@@H](O)[C@H](O)[C@H]3O)OC=C(C(=O)O)[C@H]2C[C@@H]1O [loganic acid]
- HPLC of product loganin: production of loganin by CaLAMT, CrLAMT, and CoLAMT using loganic acid as the substrate
